Patent publication US20170348280A1 (priority 2016, published 2017)
Where two headings read alike, the source gives them in different places.

Experiments:
[1] = tested on: human vascular smooth muscle cells and fibroblasts; conditions: cited from earlier work
[2] = tested on: collagen type I ECM deposition by cultured human skin fibroblasts; assay: Collagen type I ECM deposition by cultured human skin fibroblasts (immunoassay); assay type: cell-based; conditions: channel blocker alone, without ascorbate; 72 h; FIG. 1A-1F
Procedure: (§1) Both cell cultures were maintained in DMEM medium (ATCC) containing antibiotics and 5% fetal bovine serum (FBS, ATCC). All cell cultures were maintained at 37° C. and 5% CO2 atmosphere. Cell viability was monitored with MTT assay.
(§2) Collagen production by human cultured cells: In the case of these experiments, DF or AoSMC, at 5th to 8th passages, were seeded on collagen type I-covered plastic plates (Becton-Dickinson, collagen I isolated from rat tail tendon) at density of 25,000/cm^2 and grown to confluence for 5-7 days. […] Tested compounds were added to cells at indicated concentrations for 72 h in DMEM supplemented with 2% FBS and cell-produced extracellular matrix was exposed by sequential treatment with 0.5% Triton X100 and 20 mM ammonium […] in phosphate buffered saline (PBS, Life Technologies) for 3 min each at room temperature. After four washes with PBS, ECM layers were treated with 1% bovine serum albumin (BSA) in PBS for one hour at room temperature and immediately used in experiments.
Collagen and beta-actin immunoassays: Immunoassays were done by sequential incubation with primary monoclonal antibodies specific to human collagen type I or IV or human beta-actin in 1% BSA/PBS for 2 hours followed by 1 hour incubation with secondary goat anti-mouse IgG antibodies labeled with horse radish peroxidase (HRP). […]

[3] = tested on: ECM deposition of collagen type I by cultured AoSMC; assay: ECM deposition of collagen type I by cultured AoSMC (immunoassay); conditions: for reduction of ascorbyl palmitate dependent deposition of collagen type 1 to the ECM / reduction of ascorbic acid dependent deposition of collagen type 1 to the ECM: 50 μM nifedipine
[4] = tested on: intracellular content of beta-Actin in AoSMC; assay: Intracellular content of beta-actin in AoSMC (immunoassay); assay type: cell-based, human; conditions: for reduction of ascorbate-dependent beta-actin intracellular content compared to control: 50 μM nifedipine; for reduction of intracellular beta actin content: nifedipine
Procedure: as §1, §2
(§3) Collagen and beta-actin immunoassays: Immunoassays were done by sequential incubation with primary monoclonal antibodies specific to human collagen type I or IV or human beta-actin in 1% BSA/PBS for 2 hours followed by 1 hour incubation with secondary goat anti-mouse IgG antibodies labeled with horse radish peroxidase (HRP).
(§4) Differences between samples were estimated with a two-tailed Student's t-test using MedCalc software (Mariakerke, Belgium) and accepted as significant at p levels less than 0.05.

[5] = tested on: ascorbate accumulation inside human AoSMC; assay: Intracellular ascorbic acid assay in AoSMC; assay type: cell-based
Procedure: Cells were washed briefly three times with ice-cold PBS on ice and incubated with 300 μl of 0.1% saponin in 1% ethanol in PBS for 10 min on an orbit mixer. Samples were collected to Eppendorf tubes and centrifuged at 13,000×g for 5 min. Supernatants were used in an ascorbic acid assay (Ascorbic Acid Colorimetric Assay Kit […], BioVision) in accordance with the manufacturer's protocol. […] Differences between samples were estimated with a two-tailed Student's t-test using MedCalc software ([…], Belgium) and accepted as significant at p levels less than 0.05.

[6] = tested on: intracellular content of collagen type I in AoSMC; assay: Intracellular content of collagen type I in AoSMC (immunoassay); assay type: cell-based, human; conditions: for reduction of ascorbate-dependent intracellular collagen type 1 synthesis: 50 μM nifedipine; for reduction of ascorbate-dependent collagen type 1 synthesis: nifedipine
Procedure: as §1, §2, §3, §4

[7] = tested on: intracellular content of collagen type I normalized to beta actin content in aortic smooth muscle cells; assay: Intracellular collagen type I normalized by beta actin content in AoSMC; assay type: cell-based, human; conditions: for reduction of intracellular content of collagen type I normalized to beta actin content compared to the control: 50 μM nifedipine
Procedure: as §2, §3, §4

[8] = tested on: ECM deposition of collagen type IV by AoSMC; assay: ECM deposition of collagen type IV by AoSMC (immunoassay); assay type: cell-based, human; conditions: for decrease in ascorbyl palmitate dependent ECM deposition of collagen IV / reduction of ascorbic acid dependent deposition of collagen type IV to the ECM: 50 μM nifedipine; for increased collagen IV deposition: compared to 1.25 μM
Procedure: as §1, §2, §3, §4

smooth muscle cells = assay: Cell viability / cytotoxicity (MTT assay), smooth muscle cells; assay type: cell-based, human; conditions: cultured smooth muscle cells; data not shown
Procedure: as §1

cultured fibroblasts = assay: Cell viability / cytotoxicity (MTT assay), fibroblasts; assay type: cell-based, human; conditions: data not shown
Procedure: as §1

[9] = cited from earlier work
[10] = 100 μM ascorbic acid compared to 25 μM ascorbic acid
[11] = 400 μM ascorbic acid compared to 25 μM ascorbic acid

In the case of `COc1ccc(CCN(C)CCCC(C#N)(c2ccc(OC)c(OC)c2)C(C)C)cc1OC` (stereo not drawn) [verapamil], the “constitutive and platelet-derived growth factor-dependent collagen deposition in the ECM” value [1] is listed as “significantly decreased”.

In the case of `COc1ccc([C@@H]2Sc3ccccc3N(CCN(C)C)C(=O)[C@@H]2OC(C)=O)cc1` [ditiazem], the “inhibition of collagen type I deposition to the ECM” value [2] is given as “up to 13.1%” and the “constitutive and platelet-derived growth factor-dependent collagen deposition in the ECM” value [1] is given as “significantly decreased”.

With `C=C[C@H]1C[N@@]2CC[C@H]1C[C@@H]2[C@@H](O)c1ccnc2ccc(OC)cc12` [quinidine] the “effects on ascorbic acid dependent collagen type I and type IV deposition in AoSMC” value ([3]; compared with nifedipine, data not shown) was “comparable results”.

In the case of `COC(=O)C1=C(C)NC(C)=C(C(=O)OC)C1c1ccccc1[N+](=O)[O-]` [nifedipine], the “reduction of ascorbate-dependent beta-actin intracellular content compared to control” value (“reduction … to control” below) ([4]; 25 μM ascorbic acid) is reported as 29%, the “reduction … to control” value ([4]; 100 μM ascorbic acid) is reported as 22.6% and the “reduction … to control” value ([4]; 400 μM ascorbic acid) is reported as 5%. The “reduction of intracellular beta actin content” value ([4]; 5 μM ascorbyl palmitate) was 22%, the “reduction of intracellular beta actin content” value ([4]; 20 μM ascorbyl palmitate) was 23.6% and the “effect on intracellular ascorbate levels” value [5] was “no significant effect”. For the same compound, the “decrease of intracellular ascorbate” value ([5]; 50 μM nifedipine, 100 μM ascorbic acid, 90 min) was 61.5%, the “reduction of ascorbate intracellular content” value ([5]; 50 μM nifedipine, 400 μM ascorbic acid, 90 min) was 67.7% and the “reduction of ascorbate-dependent intracellular collagen type 1 synthesis” value ([6]; 25 μM ascorbic acid) was 61%. The “reduction of ascorbate-dependent intracellular collagen type 1 synthesis” value ([6]; 100 μM ascorbic acid) was 49.1%, the “increase of intracellular collagen I compared to control” value ([6]; nifedipine with 400 μM ascorbic acid) was 122% and the “reduction of ascorbate-dependent collagen type 1 synthesis” value ([6]; ascorbyl palmitate at 5 (unit not given)) was 20.3%. For the same compound, the “reduction of ascorbate-dependent collagen type 1 synthesis” value ([6]; ascorbyl palmitate at 20 (unit not given)) was 38%, the “reduction of ascorbyl palmitate dependent deposition of collagen type 1 to the ECM” value ([3]; 1.25 μM ascorbyl palmitate) was 25% and the “reduction of ascorbyl palmitate dependent deposition of collagen type 1 to the ECM” value ([3]; 2.5 μM ascorbyl palmitate) was 38%. The “reduction of ascorbyl palmitate dependent deposition of collagen type 1 to the ECM” value ([3]; 5 μM ascorbyl palmitate) was 27.5%, the “reduction of ascorbyl palmitate dependent deposition of collagen type 1 to the ECM” value ([3]; 10 μM ascorbyl palmitate) was 11% and the “reduction of ascorbyl palmitate dependent deposition of collagen type 1 to the ECM” value ([3]; 20 μM ascorbyl palmitate) was 26.5%. The “reduction of ascorbic acid dependent deposition of collagen type 1 to the ECM” value ([3]; 25 μM ascorbic acid) was 62.3%, the “reduction of ascorbic acid dependent deposition of collagen type 1 to the ECM” value ([3]; 100 μM ascorbic acid) was 41.8% and the “reduction of ascorbic acid dependent deposition of collagen type 1 to the ECM” value ([3]; 400 μM ascorbic acid) was 16.5%. For the same compound, the “reduction of intracellular content of collagen type I normalized to beta actin content compared to the control” value ([7]; 25 μM ascorbic acid) was 46%, the “reduction of intracellular content of collagen type I normalized to beta actin content compared to the control” value ([7]; 100 μM ascorbic acid) was 34.4% and the “increase of collagen I (normalized to beta actin) compared to control” value ([7]; nifedipine, 400 μM ascorbic acid) was 23%. For the same compound, the “effect on collagen I content (normalized to beta actin)” value ([7]; nifedipine, ascorbyl palmitate at 5 μM and 20 μM) was “no significant effect”, the “decrease in ascorbyl palmitate dependent ECM deposition of collagen IV” value (“decrease … of collagen IV” below) ([8]; 1.25 μM ascorbyl palmitate) was 23.5% and the “decrease … of collagen IV” value ([8]; 2.5 μM ascorbyl palmitate) was 22.7%. The “decrease … of collagen IV” value ([8]; 5 μM ascorbyl palmitate) was 22%, the “decrease … of collagen IV” value ([8]; 10 μM ascorbyl palmitate) was 13.5% and the “decrease … of collagen IV” value ([8]; 20 μM ascorbyl palmitate) was 31.6%. For the same compound, the “reduction of ascorbic acid dependent deposition of collagen type IV to the ECM” value (shortened to “reduction … of collagen type IV to the ECM”) ([8]; 25 μM ascorbic acid) was 36%, the “reduction … of collagen type IV to the ECM” value ([8]; 100 μM ascorbic acid) was 54% and the “reduction … of collagen type IV to the ECM” value ([8]; 400 μM ascorbic acid) was 43%.

With `CCCCCCCCCCCCCCCC(=O)OC[C@H](O)[C@H]1OC(=O)C(O)=C1O` [ascorbyl palmitate] the “levels found to be cytotoxic” value (smooth muscle cells) was “higher than 20 μM”, the “higher intracellular levels of ascorbic acid compared to the highest concentration of ascorbic acid used (400)” value ([5]; supplementation with 20 ascorbyl palmitate (unit not given)) was 10 × and the “levels found to be cytotoxic” value (cultured fibroblasts) was “higher than 20 μM”. For the same compound, the “increase of collagen type 1 ECM deposition” value ([3]; 2.5 μM ascorbyl palmitate administered individually, compared to 1.25 μM) was 135%, the “increase of collagen type 1 ECM deposition” value ([3]; 5 μM ascorbyl palmitate administered individually, compared to 1.25 μM) was 189% and the “increase of collagen type 1 ECM deposition” value ([3]; 10 μM ascorbyl palmitate administered individually, compared to 1.25 μM) was 184%. For the same compound, the “increase of collagen type 1 ECM deposition” value ([3]; 20 μM ascorbyl palmitate administered individually, compared to 1.25 μM) was 212%, the “increased collagen IV deposition” value ([8]; 2.5 μM ascorbyl palmitate alone) was 113% and the “increased collagen IV deposition” value ([8]; 5 μM ascorbyl palmitate alone) was 144%. The “increased collagen IV deposition” value ([8]; 10 μM ascorbyl palmitate alone) was 138% and the “increased collagen IV deposition” value ([8]; 20 μM ascorbyl palmitate alone) was 168%.

For `COc1cc(CNC(=O)CCCC/C=C/C(C)C)ccc1O` [capsaicin], the “inhibition of collagen type I deposition to the ECM” value [2] was “slight, insignificant inhibition”.

In the case of `O=C1O[C@H]([C@@H](O)CO)C(O)=C1O` [ascorbic acid], the excretion half-life ([9]; body stores depleted, by the onset of the first symptoms of scurvy) is listed as 83 days, the “renal resorption threshold (plasma level)” value ([9]; men) is listed as “about 1.5 mg/dL” and the “half-life of excretion in the urine” value ([9]; plasma concentrations larger than renal resorption threshold) is listed as “about 30 minutes”. The “renal resorption threshold (plasma level)” value ([9]; women) was about 1.3 mg/dL, the “increase of collagen type 1 ECM deposition” value [3, 10] was 114% and the “increase of collagen type 1 ECM deposition” value [3, 11] was 176%. The “increased collagen IV ECM deposition” value [8, 10] was 175% and the “increased collagen IV ECM deposition” value [8, 11] was 166%.
